Results as given in patent US20080176339A1, “NEUTRAL LABELING REACTANTS AND CONJUGATES DERIVED THEREOF” (WALLAC OY, priority 2006, published 2008).
Each block holds one compound with its values, some of them ahead of it.

How the values were obtained:
antiserum = assay: Performance of thyroxine tracers in DELFIA based T4-assay compared to AutoDELFIA Neonatal T4 kit; settings: up to one week in instrument-like conditions
Protocol: The assay concentrations of the antiserum were optimized for each tracer individually, and the analytical sensitivities of the optimized standard curves were defined. The correlation between the methods were studied with a small sample panel. The on-board stability was tested up to one week in instrument-like conditions. Sensitivity to the interference of EDTA-containing samples was also studied.

[1] = in vivo; cited from earlier work
[2] = Stabilities of chelates in DELFIA Enhancement Solution and DELFIA Inducer (dissociation of europium followed by time-resolved fluorometer); assay type: physicochemical; settings: RT (25° C.)
Protocol: The chelates (ca 1 mg) were dissolved either in Inducer or Enhanchement Solution. The dissociation of the europium at 25° C. were followed using a time-resolved fluorometer. The results are shown below

On board stability (antiserum): Better
Compound: NC(=O)CN(CCN(CC(=O)O)CC(Cc1ccc(NC(=S)NCCCCCC(=O)NC(Cc2cc(I)c(Oc3cc(I)c(O)c(I)c3)c(I)c2)C(=O)O)cc1)N(CC(N)=O)CC(=O)O)CC(=O)O (centres unmarked) [Compound 13]

On board stability (antiserum): Better
Compound: O=C(O)CN(CCN(CC(=O)O)CC(Cc1ccc(NC(=S)NCCCCCC(=O)NC(Cc2cc(I)c(Oc3cc(I)c(O)c(I)c3)c(I)c2)C(=O)O)cc1)N(CC(=O)O)CC(=O)O)CC(=O)O (centres unmarked) [Compound T4-DTPA]

Compound: O=C([O-])CN(CCN(CC(=O)[O-])CC(=O)O)CCN(CC(=O)[O-])CC(=O)O.[Gd+3] [Gd-DTPA]
Crossing of intact blood-brain barrier [1]: does not cross an intact blood-brain barrier

Approximate time needed for complete dissociation, Enhancer ([2]; DELFIA Enhancement Solution): 30 min
Approximate time needed for complete dissociation, Inducer ([2]; DELFIA Inducer): <5 min
Compound: Europium Chelate of 2-(4-aminobenzyl)-1,7-bis(aminocarbonylmethyl)-1,4,7-tris(carboxymethyl)-1,4,7-triazaheptane [Compound 10]
